Measured values as given in US20100256014A1, “NOVEL AS160-LIKE PROTEIN, TEST SYSTEMS, METHODS AND USES INVOLVING IT FOR THE IDENTIFICATION OF DIABETES TYPE 2 THERAPEUTICS” (priority 2007, published 2010).

Key:
Format in all cases: cell-based, rat
[1] = system: AKT (Ser 473); test: Western blot of AKT phosphorylation (Ser 473)
Procedure: For Western blot analysis proteins were separated on SDS-PAGE gels (4-12% resolving gel, Invitrogen), transferred to PVDF membranes (Roche) and blocked with Roti-Block® (Roth) for 1 hour. Membranes were incubated with primary antibodies overnight. The anti-AS160 antibody was from Upstate. Membranes were washed in TBST and incubated with the appropriate secondary horseradish peroxidase conjugated antibody (Santa Cruz). Immunoreactive bands were visualized with LumiLight (Roche) and detected with Lumi-lmager (Böhringer Ingelheim).
In order to examine tetracycline- and insulin-dependent expression of isoform2 of AS160 protein in L6-GLUT4myc cells containing AS160-like, a western blot analysis was performed. The expression of AS160-like protein was induced with 1 μg/ml doxycyclin for 48 hours as described above. Subsequently, the cells were stimulated with insulin (5 nM to 50 nM; Sanofi-Aventis) for 20 minutes. Cell extracts were prepared, separated via SDS-PAGE and transferred to a PVDF membrane as described above.
The AKT inhibitor Calb. had no effect on the phosphorylation of AKT (Ser 473) (FIG. 11A). […] Phosphorylation of AKT on Ser 473 was detected with a phospho-specific antibody from Biosource (Cat No.: 44-621G).

[2] = system: L6-GLUT4myc cells; test: Uptake of 2-deoxyglucose in L6-GLUT4myc cells with tet-inducible isoform2 of AS160
Procedure: For all examples […]T4myc cells containing isoform2 of AS160 were grown in MEMα (PAN) supplemented with 10% fetal calf serum (FCS) (PAA, tet-free), 2 μg/ml blasticidin (Calbiochem), 0.5 μg/ml puromycin (InvivoGen), 200 μg/ml hygromycin (Invitrogen). Expression of isoform2 of AS160 was induced with 1 μg/ml doxycyclin (Sigma). L6-wildtype (wt) (ATCC: CRL-1458) cells were grown in MEMα+GlutaMax (Gibco) supplemented with 10% FCS (PAA, tet-free) and 1% penicillin/streptomycin (PAA). […]T4myc cells were grown in MEMα+GlutaMax (Gibco) supplemented with 10% FCS (PAA, tet-free), 1% penicillin/streptomycin (PAA) and 2 μg/ml blasticidin (Calbiochem). All cells were grown at 37° C. and 5% CO2. […]T4myc cells containing isoform2 of AS160 were incubated in starve medium (MEMα) 3-4 hours prior to each experiment. To examine glucose uptake of the cells, the respective cells were plated in 96 well Cytostar-T scintillating microplates (Amersham). After 48 hours cells were serum-starved (3-4 hours) and treated with inhibitors as indicated. Uptake of 2-deoxyglucose (0.01 MBq per well, Amersham) was performed as already described (Voss et al., 2005). Nonspecific uptake was determined in the presence of 40 μM cytochalasin B (Calbiochem). This value was subtracted from all other values. Measurement occurred in a Wallac Microbeta counter (Perkin Elmer). Uptake of 2-deoxyglucose is presented as counts per […] (cpm).

[3] = system: L6-GLUT4myc cells; test: Tetracycline-inducible GFP expression (functionality of the tet-repressor); settings: pCDNA5/TO-GFP; addition of doxycyclin; data not shown
Procedure: L6-GLUT4myc cells containing AS160-like were grown in MEMα (PAN) supplemented with 10% fetal calf serum (FCS) (PAA, tet-free), 2 μg/ml blasticidin (Calbiochem), 0.5 μg/ml puromycin (InvivoGen), 200 μg/ml hygromycin (Invitrogen). Functionality of the tet-repressor was controlled with a tetracycline-inducible GFP expression plasmid (pCDNA5/TO-GFP). In the absence of tetracycline (or doxycyclin) only a small number of cells express GFP. Addition of doxycyclin increases the number of GFP expressing cells about 10 fold (data not shown).

[4] = system: AKT (Ser 473); test: In-cell western, phospho-AKT
Source text: (§1) To study phosphorylation of AKT and AS160 the cells described in Example 2 were used. AS160 is activated by phosphorylation on critical motifs (RXRXXS/T). Known phospho-sites in AS160 are Ser 570, Ser 588, Thr 642 and Thr 751 (Sano et al., 2003). One of the kinases responsible for the activation of AS160 is AKT (Kane et al., 2002). In order to determine the activation status of the isoform2 of AS160 the In-cell western blot technique was used. This method allows the detection of specific proteins directly in 96 well plates without preparation of cell extracts. The specific antibody used in this assay recognizes the phosphorylated Thr 642 phosphorylation site of AS160 and AS160-like protein.
(§2) For this, cells were seeded into 96-well plates (black, Nunc) and grown for 48 hours. Cells were starved for 3-4 hours with MEMα (PAN) containing 2% horse serum (Cambrex). After removal of medium cells were fixed in 3.7% freshly prepared para-formaldehyde (Sigma) for 20 minutes. Cells were permeabilized with PBS+0.1% Triton-X-100. Blocking was performed with Odyssey blocking buffer (Licor) overnight at 4° C. Primary antibodies were incubated for 2 hours at room temperature. The anti-phosphoAKT (Ser 473, Cat No.: 44-621 G) and the anti-phosphoAS160 (Thr 642, Cat No.: 44-1071 G) were from Biosource. After incubation of the primary antibody, cells were washed with PBS+0.1% Tween20. The secondary anti-rabbit-IgG-800-CW antibody (Rockland Cat No.: 611-131-122) was incubated for 1 hour. For detection of DNA TO-PRO3 dye (Molecular Probes, Cat No.: T3605) was used. Fluorescence signals (FIG. 6) are presented as relative units (RU).

[5] = system: AS160 (Thr 642); test: In-cell western, phospho-AS160
Source text: as §1, §2

[6] = system: GLUT4; test: GLUT4 translocation, laser-scanning fluorescence microplate cytometry (ACUMEN)
Procedure: For this purpose, a technique suitable for screening of compounds was applied. Laser-scanning fluorescence microplate cytometry (ACUMEN technique, LIT) allows the distinct multiparametric analysis of single fluorescent cells in microplates (Bowen and Wylie, 2006). For laser-scanning fluorescence microplate cytometer (Acumen) cells were plated in 96 well plates (Biocat, black). Serum-starved cells were treated as indicated. Briefly, cells were fixed in 3.75% para-formaldehyde (Sigma) for 20 minutes. Subsequently, quenching occurred with […] NH4Cl. Cells were blocked with an adequate blocking solutions for a minimum of 1 hour. Primary antibody (monoclonal anti-myc 9E10, Santa Cruz, sc-40) was incubated for 1 hour. The secondary goat-anti mouse IgG (Alexa Fluor 488, Molecular Probes) was incubated in the presence of Sytox-orange for 1 hour (Bowen and Wylie, 2006).
Based on this highly sensitive procedure it is possible to screen various cell numbers for plasma-membrane based GLUT4-myc-display. Cells were counter-stained with a DNA dye (SytoxOrange) to confirm equal cell numbers.

[7] = system: GLUT4-myc; test: Immunofluorescence localization of GLUT4-myc; settings: insulin 100 nM, 20 minutes; L6-GLUT4-myc-tetR-AS160-like
Procedure: Cells were grown on sterile cover slides in 12 well plates. Expression of isoform2 of AS160 was induced with doxycyclin treatment for 48 hours. Serum-starved cells were treated with 100 nM insulin for 20 minutes or were left untreated. After stimulation, cells were fixed in 3.75% para-formaldehyde (Sigma) for 20 minutes. Subsequently, cells were permeabilised with 0.1% TritonX100 in PBS (Icon Biomedicals) or left unpermeabilised (as indicated) for 5 minutes at room temperature. The permeabilisation procedure allows the detection of intracellular localized compartments. Membrane-bound proteins are visualized without permeabilising the cells. Blocking of cells occurred for a minimum of 1 hour in PBS+1% BSA (USB). Primary antibodies (monoclonal anti-myc, Santa Cruz, sc-40 and polyclonal anti-AS160 Upstate) were incubated overnight. The secondary antibodies used are anti-rabbit Alexa488 to detect isoform2 of AS160 and anti-mouse A546 to detect GLUT4-myc. Incubation occurred is for 1 hour (dark). Cells were mounted in 15 μl Dako Cytomation Fluorescent Mounting Medium (DakoCytomation), examined by confocal laser-scanning microscopy with Leica DM IRE2 and analyzed with Leica DM SDK software.

[8] = without expression of isoform 2 of AS160
[9] = metformin 800 μM overnight, normal and insulin-resistant conditions
[10] = with doxycyclin-induced expression of isoform 2 of AS160
[11] = high glucose plus insulin conditions
[12] = high glucose plus insulin overnight (25 mM glucose+10 nM insulin)

For “1 L-6-hydroxymethyl-chiro-inositol 2-(R)-2-O-methyl-3-O-octadecylcarbonate [AKT inhibitor Calb., reference compound]”, the “effect on insulin-stimulated phosphorylation of AKT (Ser 473)” value ([1]; pre-incubation 1 hour (wortmannin 200 nM, AKT inhibitor Calb. 50 μM), then insulin 10 nM 20 minutes) was “no effect”.

`NC(=O)c1ncn([C@@H]2O[C@H](CO)[C@@H](O)[C@H]2O)c1N` [AICAR, 5-Aminoimidazole-4-carboxaide 1-beta-D-ribofuranoside, reference compound] was tested, and the “effect of expression of isoform 2 of AS160 on stimulated glucose uptake” value ([2]; with vs without isoform 2 of AS160) was “no additional effect” and the “uptake of glucose (2-deoxyglucose), fold increase after stimulation” value (“uptake … fold increase after stimulation” below) [2, 8] was 1.5 fold.

For `N#CC(=C(/N)Sc1ccccc1N)/C(C#N)=C(\N)Sc1ccccc1N` [U0126, reference compound], the “effect on uptake of glucose” value ([2]; U0126 10 μM, 20 μM, additional stimulation with 5 nM insulin, mainly in cells expressing isoform2 of AS160) was “significantly improved uptake of glucose”.

In the case of `C[C@H]1c2cccc(O)c2C(O)=C2C(=O)[C@]3(O)C(O)=C(C(N)=O)C(=O)[C@@H](N(C)C)[C@@H]3[C@@H](O)[C@@H]21` [doxycyclin, reference compound], the “increase of glucose uptake induced by doxycyclin” value ([2]; doxycyclin 48 hours, insulin 20 minutes, correlated with isoform2 of AS160 protein levels) is reported as “dose-dependent manner” and the “increase of the number of GFP expressing cells” value [3] is reported as “about 10 fold”.

`CN(C)C(=N)N=C(N)N` [metformin, dimethylbiguanide, reference compound] was tested, and the “effect on activation of AKT” value [4, 9] was “no effect” and the “effect on activation of AS160” value [5, 9] was “no effect”.

With insulin the “time at which the maximum of glucose uptake is observed” value ([2]; 50 nM insulin, time points 5, 15, 30 minutes) was ≤ 5 min, the “uptake … fold increase after stimulation” value [2, 10] was “up to 4 fold” and the “AKT phosphorylation signal compared to untreated conditions (normal Glc)” value [4, 11] was 72%. For the same compound, the “AKT (Ser 473) phosphorylation under insulin-resistant conditions” value [4, 12] was “dose-dependent manner”, the “AKT phosphorylation (Ser 473)” value ([4]; normal conditions, insulin 20 minutes) was “dose-dependent manner” and the “phosphorylation of AKT (Ser 473)” value ([1]; insulin 5 nM to 50 nM, 20 minutes) was “induced the phosphorylation of AKT (Ser 473)”. For the same compound, the “increased translocation of GLUT4 to the plasma membrane” value ([6]; 100 nM insulin 20 minutes, doxycyclin-induced expression of AS160-like protein) was ~15%, the GLUT4 translocation ([6]; 100 nM insulin alone (no AS160-like expression)) was “slightly induced” and the “localization of GLUT4-myc” value [7] was “induces the translocation of GLUT4-myc to the plasma membrane”. The “AS160 phosphorylation signal compared to untreated conditions (normal Glc)” value [5, 11] was 72%, the “AS160 (Thr 642) phosphorylation under insulin-resistant conditions” value [5, 12] was “dose-dependent manner” and the “phosphorylation of full-length or isoform2 of AS160 (Thr 642)” value ([5]; normal conditions, doxycyclin-induced cells, insulin 20 minutes) was “dose-dependent manner”.

For insulin like growth factor-1 [IGF-1], the “uptake … fold increase after stimulation” value [2, 10] was “up to 5 fold” and the “uptake … fold increase after stimulation” value [2, 8] was 3 fold.
